In US4870097A, “Pharmaceutical use of derivatives of tryptophan” (priority 1984, dated 1989):

Experiments:
[1] = test system: analgesic activity of morphine; assay: Tail Flick Test: increase in the analgesic effect of morphine; type: in vivo, rats; details: for percentage variation in the latency of the pain sensation, 10' / percentage variation in the latency of the pain sensation, 20' / percentage variation in the latency of the pain sensation, 30' / percentage variation in the latency of the pain sensation, 45' / percentage variation in the latency of the pain sensation, 60' / percentage variation in the latency of the pain sensation, 90' / M(10'-90') average percentage variation: compound 10 mg/kg i.p. + morphine 2 mg/kg (row Morphine: alone); for percentage variation in the latency of the pain sensation, 10' / percentage variation in the latency of the pain sensation, 20' / percentage variation in the latency of the pain sensation, 30' / percentage variation in the latency of the pain sensation, 45' / percentage variation in the latency of the pain sensation, 60' / percentage variation in the latency of the pain sensation, 90': ± S.E.; for M(10'-90') average percentage variation: mean 10'-90'; for Potency ratio relative to morphine alone: rat, in vivo
Description: Increase in the analgesic effect of analgesic-narcotic drugs in rats in the Tail Flick Test
The method is that described by Harris et al. (J. Pharmacol. Exp. Ther. 143 (1964) 141-148).
Male rats are used which have a weight of about 150-200 g and which have not been fasting. A point is chosen on the tail and this is irradiated by a heat source (75° C.) and the time (in seconds) for which the animal remains without moving its tail is measured.
A maximum period of time under the heat source of 8 seconds is chosen after which the animal is, in any case, removed in order to avoid tissue damage. The measurement is effected before (controls) and after treatment with the drugs.
. The percentage variation is calculated for each individual animal by the following formula: [formula] The measurements are carried out 10, 20, 30, 45, 60 and 90 minutes after treatment with the analgesics.
The results obtained are given in Table 1 which records the groups treated and the doses administered, the
average percentage variations (calculated on groups of five animals) in […]

[2] = test system: guinea pig gall bladder contracted with CCK-8; assay: Anti-CCK activity on guinea pig gall bladders in vitro; type: biochemical; details: CCK-8 10 ng/ml, concentration antagonising 50% of contracting effect
Description: A longitudinal strip of guinea pig gall bladder is placed in a bath of Krebs for isolated organs at a temperature of 32° C. and oxygenated continuously with an oxygen-CO2 mixture (95-5 V/V).
The […] contractions are detected by means of a force transducer and recorded.
The gall bladder is contracted with the use of a CCK-8 solution at a concentration of 10 ng/ml; the antagonistic activity of the compounds of the invention towards the contracting effect of the CCK is determined with the use of different concentrations, the ED50 value, that is the concentration of the compound in mcg/ml capable of antagonising 50% of the contracting effect of the CCK, being determined.
The results obtained are set out in the following table which gives the compounds tested and the ED50 values which are calculated by the method of regression on a test of at least three experiments for each compound studied.

Row | Compound | percentage variation in the latency of the pain sensation, 10' [1] | percentage variation in the latency of the pain sensation, 20' [1] | percentage variation in the latency of the pain sensation, 30' [1] | percentage variation in the latency of the pain sensation, 45' [1] | percentage variation in the latency of the pain sensation, 60' [1] | percentage variation in the latency of the pain sensation, 90' [1] | M(10'-90') average percentage variation [1] | Potency ratio relative to morphine alone [1] | Anti CCK-8 activity, ED50 [2]
1 | O=C(N[C@@H](Cc1c[nH]c2ccccc12)C(=O)O)c1ccc(Cl)c(Cl)c1 [Compound 17] | 96.9 ± 4.1% | 100.0 ± 0.0% | 100.0 ± 0.0% | 50.3 ± 10.1% | 85.4 ± 11.5% | 29.6 ± 4.5% | 85.0% | 2.85 | 398.0 µg/mL
2 | N#Cc1ccc(C(=O)N[C@@H](Cc2c[nH]c3ccccc23)C(=O)O)cc1 [Compound 31] | 67.6 ± 16.1% | 66.3 ± 3.5% | 81.4 ± 14.7% | 73.4 ± 18.0% | 77.4 ± 10.3% | 21.3 ± 16.5% | 64.6% | 2.17 | IN (inactive up to 400 mcg/ml)
3 | O=C(N[C@@H](Cc1c[nH]c2ccccc12)C(=O)O)c1ccc(Br)cc1 [Compound 13] | 26.7 ± 5.6% | 72.6 ± 13.0% | 77.2 ± 10.0% | 86.2 ± 8.9% | 38.8 ± 11.3% | 12.6 ± 9.8% | 52.3% | 1.75 | 158.0 µg/mL
4 | O=C(N[C@@H](Cc1c[nH]c2ccccc12)C(=O)O)OCc1cccc(Cl)c1 [Compound 5] | 34.5 ± 13.3% | 53.0 ± 24.8% | 62.5 ± 16.6% | 50.5 ± 17.6% | 43.7 ± 10.1% | 52.2 ± 22.2% | 50.9% | 1.71 | 23.2 µg/mL
5 | O=C(N[C@@H](Cc1c[nH]c2ccccc12)C(=O)O)c1cccc(Cl)c1 [Compound 16] | 25.2 ± 21.8% | 39.5 ± 26.1% | 37.7 ± 22.9% | 33.1 ± 19.9% | 25.9 ± 18.1% | 9.7 ± 11.9% | 28.5% | 0.96 | 197.5 µg/mL
6 | N#Cc1cccc(C(=O)N[C@@H](Cc2c[nH]c3ccccc23)C(=O)O)c1 [Compound 32] | 18.7 ± 6.7% | 60.7 ± 15.5% | 63.7 ± 16.3% | 63.7 ± 16.3% | 45.8 ± 16.1% | 22.8 ± 12.2% | 43.0% | 1.44 | IN (inactive up to 400 mcg/ml)
7 | CCCCCCCc1ccc(C(=O)N[C@@H](Cc2c[nH]c3ccccc23)C(=O)O)cc1 [Compound 27] | 73.8 ± 18.1% | 95.2 ± 4.7% | 86.6 ± 9.0% | 87.7 ± 12.3% | 83.8 ± 9.9% | 88.4 ± 8.5% | 85.9% | 2.88 | 148.5 µg/mL
8 | O=C(N[C@@H](Cc1c[nH]c2ccccc12)C(=O)O)c1ccc(C(F)(F)F)cc1 [Compound 30] | 9.8 ± 10.5% | 45.6 ± 16.1% | 69.3 ± 22.2% | 62.3 ± 21.9% | 54.8 ± 17.6% | 24.7 ± 15.5% | 43.6% | 1.46 | IN (inactive up to 400 mcg/ml)
9 | CCCCc1ccc(C(=O)N[C@@H](Cc2c[nH]c3ccccc23)C(=O)O)cc1 [Compound 23] | 47.9 ± 15.7% | 50.3 ± 10.1% | 56.9 ± 20.6% | 67.2 ± 20.9% | 41.1 ± 16.3% | 36.1 ± 18.0% | 49.9% | 1.67 | 74.0 µg/mL
10 | Cc1cccc(C(=O)N[C@@H](Cc2c[nH]c3ccccc23)C(=O)O)c1 [Compound 21] | 30.5 ± 19.7% | 89.0 ± 11.0% | 93.9 ± 6.1% | 85.9 ± 14.1% | 99.2 ± 0.8% | 56.3 ± 17.4% | 77.3% | 2.59 | IN (inactive up to 400 mcg/ml)
11 | Cc1ccc(C(=O)N[C@@H](Cc2c[nH]c3ccccc23)C(=O)O)cc1 [Compound 18] | 7.8 ± 16.1% | 14.9 ± 17.1% | 42.1 ± 18.3% | 26.6 ± 20.5% | 32.7 ± 25.9% | 41.1 ± 24.3% | 27.5% | 0.93 | IN (inactive up to 400 mcg/ml)
12 | CCc1ccc(COC(=O)N[C@@H](Cc2c[nH]c3ccccc23)C(=O)O)cc1 [Compound 9] | 46.7 ± 14.7% | 62.2 ± 16.5% | 39.6 ± 15.7% | 86.9 ± 8.0% | 46.7 ± 20.4% | 40.8 ± 22.4% | 53.8% | 1.80 | 125.4 µg/mL
